Test results: US20190247361A1, “OXYTOCIN ANTAGONIST DOSING REGIMENS FOR PROMOTING EMBRYO IMPLANTATION AND PREVENTING MISCARRIAGE” (ObsEva S.A., priority 2016, published 2019)

Key:
[1] = test system: subjects undergoing embryo transfer therapy; experiment: Phase 2 clinical study: pregnancy and live birth after embryo transfer; assay type: in vivo, human
Description: A total of 247 female subjects were selected for treatment based on a variety of inclusion criteria. Of these, 244 subjects completed the study. The study was open to healthy female volunteers from 18 to 36 years of age that had previously undergone up to one IVF or ICSI cycle that resulting in a negative pregnancy test as assessed by hCG detection, despite the transfer of at least one embryo of good quality, which was defined as an embryo having from six to eight blastomeres of uniform size and shape on the day of embryo transfer, ooplasm having no granularity, absence of multinucleation, and a maximum fragmentation of 10%. Subjects included in the study had at least one functional ovary and were capable of communicating with the investigator and research staff and complying with the requirements of the study protocol. Data are presented in the form of mean (standard deviation).
Subjects included in the study underwent an initial screening period beginning up to 12 weeks prior to the day of oocyte retrieval from the subject. During this 12-week period, subjects underwent physical and gynecological examination in preparation for oocyte retrieval. This analysis included a recordation of the subjects' vital signs, hematology and biochemistry analysis of blood samples withdrawn from the subjects, urinary analysis, and a comprehensive review of the subjects' medical histories.
At the conclusion of the screening period, subjects underwent controlled ovarian hyperstimulation by administration of a GnRH antagonist so as to prevent a premature rise in serum LH concentration. Concurrent pre-treatment with an oral contraceptive prior to controlled ovarian hyperstimulation was allowed, but not required. Final follicular maturation was performed with a single administration of hCG to the subject. Luteal support was performed by intravaginal administration of micronized natural progesterone at a dose of 600 mg (3×200 mg dosage forms) daily, commencing within 6-24 hours of oocyte retrieval. Progesterone administration continued for at least 6 weeks following embryo transfer for subjects testing positive for pregnancy at 14 days following embryo transfer. Retrieved oocytes contained at least 1-4 mature oocytes (i.e., ova), which were subsequently used for IVF or ICSI for embryo generation.
The embryo transfer procedure was conducted three days after the oocyte retrieval day (OPU+3 days). Subjects undergoing embryo transfer were monitored prior to initiating the procedure. This analysis included a recordation of vital signs, as well as a transvaginal ultrasound to assess uterine contraction rate and endometrial thickness. […] Eligible subjects subsequently underwent blood sample analysis to determine pre-treatment levels of serum E2 and P4.
From one to two embryos of good quality were transferred to each subject. To reduce uterine contractions at the time of embryo transfer, soft or ultra-soft catheters were used and contact with the uterine fundus was avoided. Any difficulties that occurred during the embryo transfer procedure were recorded, including instances in which uterine sounding or cervical dilation were required, instances in which a harder catheter was required, or instances in which blood was found in any part of the catheter.
Approximately 1 hour following embryo transfer, subjects underwent a final physical examination and were subsequently discharged from the clinical unit until the first follow-up visit, which occurred at about 14 days following oocyte retrieval (OPU+14 days). At this time, subjects underwent a physical examination as well as a blood sample analysis to assess pregnancy by detection of hCG. Subjects testing positive for pregnancy continued the study and were scheduled for follow-up examinations at about 6 weeks following embryo transfer and at about 10 weeks following oocyte retrieval (OPU+10 weeks). Subjects that returned for examination at about 6 weeks following embryo transfer underwent ultrasound analysis. […]

CYP2C19 = CYP2C19 (Homo sapiens, UniProt P33261); experiment: metabolism by CYP2C19 isoform; assay type: in vitro ADME; conditions: for Compound Remaining (% of compound present at t = 0 min): 5 μM
Sequence of CYP2C19 (P33261 whole entry, canonical isoform): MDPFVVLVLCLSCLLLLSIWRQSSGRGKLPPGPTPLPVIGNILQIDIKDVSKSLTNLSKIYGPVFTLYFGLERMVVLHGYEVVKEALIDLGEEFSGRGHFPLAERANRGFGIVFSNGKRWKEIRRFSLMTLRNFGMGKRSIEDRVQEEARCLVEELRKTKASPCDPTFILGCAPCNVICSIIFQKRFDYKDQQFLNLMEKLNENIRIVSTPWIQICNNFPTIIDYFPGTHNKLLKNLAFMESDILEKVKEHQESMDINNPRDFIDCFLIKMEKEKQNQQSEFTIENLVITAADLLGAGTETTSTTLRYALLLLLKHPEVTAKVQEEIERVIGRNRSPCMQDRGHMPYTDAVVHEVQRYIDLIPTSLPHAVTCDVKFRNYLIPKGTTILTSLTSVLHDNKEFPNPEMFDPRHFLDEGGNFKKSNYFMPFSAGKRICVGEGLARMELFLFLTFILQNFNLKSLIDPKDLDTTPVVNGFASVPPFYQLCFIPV
Description: At five time points over the course of a 45 minute experiment, the compounds were analyzed by LC-MS/MS. The percentage of each compound remaining at each time point, along with the metabolic half-lives of each compound in the presence of each cytochrome P450 isoform, are indicated in Tables 10-12, below.

[2] = All P4 quartiles, 1 embryo transferred, 100 mg dose
[3] = All P4 quartiles, 1 embryo transferred, 300 mg dose
[4] = All P4 quartiles, 1 embryo transferred, 900 mg dose
[5] = All P4 quartiles, 1 embryo transferred, All doses
[6] = All P4 quartiles, 2 embryos transferred, 100 mg dose
[7] = All P4 quartiles, 2 embryos transferred, 300 mg dose
[8] = All P4 quartiles, 2 embryos transferred, 900 mg dose
[9] = All P4 quartiles, 2 embryos transferred, All doses
[10] = Excluding upper P4 quartile, 1 embryo transferred, 100 mg dose
[11] = Excluding upper P4 quartile, 1 embryo transferred, 300 mg dose
[12] = Excluding upper P4 quartile, 1 embryo transferred, 900 mg dose
[13] = Excluding upper P4 quartile, 1 embryo transferred, All doses
[14] = Excluding upper P4 quartile, 2 embryos transferred, 100 mg dose
[15] = Excluding upper P4 quartile, 2 embryos transferred, 300 mg dose
[16] = Excluding upper P4 quartile, 2 embryos transferred, 900 mg dose
[17] = Excluding upper P4 quartile, 2 embryos transferred, All doses
[18] = excluding subjects from pre-treatment serum P4 concentration Q4, 100 mg dose
[19] = excluding subjects from pre-treatment serum P4 concentration Q4, 300 mg dose
[20] = excluding subjects from pre-treatment serum P4 concentration Q4, 900 mg dose
[21] = excluding subjects from pre-treatment serum P4 concentration Q4, All doses

CO/N=C1/C[C@@H](CO)N(C(=O)c2ccc(-c3ccccc3C)cc2)C1 [Compound (II), (3Z,5S)-5-(hydroxymethyl)-1-[(2′-methyl-1,1′-biphenyl-4-yl)carbonyl]pyrrolidin-3-one O-methyloxime]
Live birth rate at a gestational age of at least 24 weeks [1, 2]: (33.33%) | Live birth rate at a gestational age of at least 24 weeks, Frequency [1, 2]: 13/39 | Live birth rate at a gestational age of at least 24 weeks [1, 3]: (33.33%) | Live birth rate at a gestational age of at least 24 weeks, Frequency [1, 3]: 12/36 | Live birth rate at a gestational age of at least 24 weeks [1, 4]: (40.00%) | Live birth rate at a gestational age of at least 24 weeks, Frequency [1, 4]: 14/35 | Live birth rate at a gestational age of at least 24 weeks [1, 5]: (35.45%) | Live birth rate at a gestational age of at least 24 weeks, Frequency [1, 5]: 39/110 | Live birth rate at a gestational age of at least 24 weeks [1, 6]: (52.17%) | Live birth rate at a gestational age of at least 24 weeks, Frequency [1, 6]: 12/23 | Live birth rate at a gestational age of at least 24 weeks [1, 7]: (37.50%) | Live birth rate at a gestational age of at least 24 weeks, Frequency [1, 7]: 9/24 | Live birth rate at a gestational age of at least 24 weeks [1, 8]: (50.00%) | Live birth rate at a gestational age of at least 24 weeks, Frequency [1, 8]: 12/24 | Live birth rate at a gestational age of at least 24 weeks [1, 9]: (46.48%) | Live birth rate at a gestational age of at least 24 weeks, Frequency [1, 9]: 33/71 | Live birth rate at a gestational age of at least 24 weeks [1, 10]: (32.35%) | Live birth rate at a gestational age of at least 24 weeks, Frequency [1, 10]: 11/34 | Live birth rate at a gestational age of at least 24 weeks [1, 11]: (45.45%) | Live birth rate at a gestational age of at least 24 weeks, Frequency [1, 11]: 10/22 | Live birth rate at a gestational age of at least 24 weeks [1, 12]: (44.83%) | Live birth rate at a gestational age of at least 24 weeks, Frequency [1, 12]: 13/29 | Live birth rate at a gestational age of at least 24 weeks [1, 13]: (40.00%) | Live birth rate at a gestational age of at least 24 weeks, Frequency [1, 13]: 34/85 | Live birth rate at a gestational age of at least 24 weeks [1, 14]: (50.00%) | Live birth rate at a gestational age of at least 24 weeks, Frequency [1, 14]: 8/16 | Live birth rate at a gestational age of at least 24 weeks [1, 15]: (53.85%) | Live birth rate at a gestational age of at least 24 weeks, Frequency [1, 15]: 7/13 | Live birth rate at a gestational age of at least 24 weeks [1, 16]: (60.00%) | Live birth rate at a gestational age of at least 24 weeks, Frequency [1, 16]: 12/20 | Live birth rate at a gestational age of at least 24 weeks [1, 17]: (55.10%) | Live birth rate at a gestational age of at least 24 weeks, Frequency [1, 17]: 27/49 | Live birth rate at gestational age of at least 24 weeks ([1]; all subjects, 100 mg dose): 40.3% | Ongoing pregnancy rate at 6 weeks post embryo transfer ([1]; all subjects, 100 mg dose): 46.8% | Ongoing pregnancy rate at 10 weeks post oocyte retrieval ([1]; all subjects, 100 mg dose): 43.5% | Positive pregnancy test at 14 days post embryo transfer ([1]; all subjects, 100 mg dose): 56.5% | Live birth rate at gestational age of at least 24 weeks ([1]; all subjects, 300 mg dose): 35.0% | Ongoing pregnancy rate at 6 weeks post embryo transfer ([1]; all subjects, 300 mg dose): 35.0% | Ongoing pregnancy rate at 10 weeks post oocyte retrieval ([1]; all subjects, 300 mg dose): 35.0% | Positive pregnancy test at 14 days post embryo transfer ([1]; all subjects, 300 mg dose): 50.0% | Live birth rate at gestational age of at least 24 weeks ([1]; all subjects, 900 mg dose): 43.3% | Ongoing pregnancy rate at 6 weeks post embryo transfer ([1]; all subjects, 900 mg dose): 46.7% | Ongoing pregnancy rate at 10 weeks post oocyte retrieval ([1]; all subjects, 900 mg dose): 45.0% | Positive pregnancy test at 14 days post embryo transfer ([1]; all subjects, 900 mg dose): 53.3% | Live birth rate at gestational age of at least 24 weeks ([1]; all subjects, All doses): 39.6% | Ongoing pregnancy rate at 6 weeks post embryo transfer ([1]; all subjects, All doses): 42.9% | Ongoing pregnancy rate at 10 weeks post oocyte retrieval ([1]; all subjects, All doses): 41.2% | Absolute increase in live birth rate vs placebo [1, 18]: 7.4% | Live birth rate at gestational age of at least 24 weeks [1, 18]: 38.0% | Live birth rate at gestational age of at least 24 weeks, frequency [1, 18]: 19/50; | Ongoing pregnancy rate at 6 weeks post embryo transfer [1, 18]: 44.0% | Ongoing pregnancy rate at 10 weeks post oocyte retrieval [1, 18]: 42.0% | Positive pregnancy test at 14 days post embryo transfer [1, 18]: 54.0% | Absolute increase in live birth rate vs placebo [1, 19]: 18.0% | Live birth rate at gestational age of at least 24 weeks [1, 19]: 48.6% | Live birth rate at gestational age of at least 24 weeks, frequency [1, 19]: 17/35; | Ongoing pregnancy rate at 6 weeks post embryo transfer [1, 19]: 48.6% | Ongoing pregnancy rate at 10 weeks post oocyte retrieval [1, 19]: 48.6% | Positive pregnancy test at 14 days post embryo transfer [1, 19]: 62.9% | Absolute increase in live birth rate vs placebo [1, 20]: 20.4% | Live birth rate at gestational age of at least 24 weeks [1, 20]: 51.0% | Live birth rate at gestational age of at least 24 weeks, frequency [1, 20]: 25/49; | Ongoing pregnancy rate at 6 weeks post embryo transfer [1, 20]: 53.1% | Ongoing pregnancy rate at 10 weeks post oocyte retrieval [1, 20]: 51.0% | Positive pregnancy test at 14 days post embryo transfer [1, 20]: 59.2% | Absolute increase in live birth rate vs placebo [1, 21]: 14.9% | Live birth rate at gestational age of at least 24 weeks [1, 21]: 45.5% | Live birth rate at gestational age of at least 24 weeks, frequency [1, 21]: 61/134; | Ongoing pregnancy rate at 6 weeks post embryo transfer [1, 21]: 48.5% | Ongoing pregnancy rate at 10 weeks post oocyte retrieval [1, 21]: 47.0% | Compound Remaining (% of compound present at t = 0 min) (CYP2C19; 0 min): 100% | Compound Remaining (% of compound present at t = 0 min) (CYP2C19; 5 min): 93.7% | Compound Remaining (% of compound present at t = 0 min) (CYP2C19; 15 min): 79.1% | Compound Remaining (% of compound present at t = 0 min) (CYP2C19; 30 min): 67.8% | Compound Remaining (% of compound present at t = 0 min) (CYP2C19; 45 min): 59.9% | half-life at 5 μM (CYP2C19; human): 1.01 h
